Test results as given in US9440941B2, “Substituted chroman-6-yloxy-cycloalkanes and their use as pharmaceuticals” (SANOFI, priority 2013, dated 2016).
Structures can show the parent of a compound that is named as a salt.

Molecular target: T1, human NCX1 (Homo sapiens, UniProt P32418)
T1 construct: expressed in transfected cells
Assay: Inhibition of Ca2+ influx into cells (NCX1 reverse mode), FLIPR Fluo-4 assay
Type: cell-based
Conditions: inhibition of NCX1 in reverse mode (Ca2+ influx into cells); read-out: NCX1rv IC50
Outline: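 Ca2+ influx via reverse-mode exchange was evoked with gramicidin (20 µM final) after 45 min compound exposure at 16 °C in stably transfected CHO cells. Fluo-4 signal (520 nm) was followed on FLIPR at 2 s intervals. Max–min fluorescence gave percentage inhibition, from which IC50 was calculated.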

| Structure (SMILES) | IC50 |
| --- | --- |
| CN[C@@H](C)C(=O)N[C@H]1CC[C@H](Oc2ccc3c(c2)CCC(c2ccccc2)O3)CC1 (stereo partly drawn) [compound 71, hydrochloride] | 0.6 µM |
| C[C@@H](N)C(=O)N[C@H]1CC[C@H](Oc2ccc3c(c2)CCC(c2ccccc2)O3)CC1 (stereo partly drawn) [compound 72, hydrochloride] | 0.3 µM |
| OC1CCC(Oc2ccc3c(c2)CCC(c2ccccc2)O3)CC1 (stereo not drawn) [compound 74, 4-(2-Phenylchroman-6-yloxy)cyclohexanol] | 0.3 µM |
| O=S(=O)(CCc1ccncc1)N[C@H]1CC[C@H](Oc2ccc3c(c2)CC[C@@H](c2ccccc2)O3)CC1 [compound 75] | 1 µM |
| O=C1CCC(Oc2ccc3c(c2)CCC(c2ccccc2)O3)CC1 (stereo not drawn) [compound 77, 4-(2-Phenylchroman-6-yloxy)cyclohexanone] | 0.4 µM |
| CC(=O)OC1CCC(Oc2ccc3c(c2)CCC(c2ccccc2)O3)CC1 (stereo not drawn) [compound 78, [4-(2-Phenylchroman-6-yloxy)cyclohexyl] acetate] | 0.6 µM |
| c1ccc(C2CCc3cc(O[C@H]4CC[C@H](N(Cc5ccsc5)Cc5ccsc5)CC4)ccc3O2)cc1 (stereo partly drawn) [compound 79, [trans-4-(2-Phenylchroman-6-yloxy)]-N,N-bis(thiophen-3-ylmethyl)cyclohexylamine] | 11 µM |
| c1ccc(C2CCc3cc(O[C@H]4CC[C@H](N(CC5CC5)CC5CC5)CC4)ccc3O2)cc1 (stereo partly drawn) [compound 80, N,N-Bis(cyclopropylmethyl)-[trans-4-(2-phenylchroman-6-yloxy)]-cyclohexylamine] | 0.5 µM |
| Cn1cc(Cl)c(CN(Cc2nn(C)cc2Cl)[C@H]2CC[C@H](Oc3ccc4c(c3)CCC(c3ccccc3)O4)CC2)n1 (stereo partly drawn) [compound 81, N,N-Bis(4-chloro-1-methyl-pyrazol-3-ylmethyl)-[trans-4-(2-phenylchroman-6-yloxy)]-cyclohexylamine] | 4 µM |
| Cc1cc(CN(Cc2cc(C)on2)[C@H]2CC[C@H](Oc3ccc4c(c3)CCC(c3ccccc3)O4)CC2)no1 (stereo partly drawn) [compound 82, N,N-Bis(5-methylisoxazol-3-ylmethyl)-[trans-4-(2-phenylchroman-6-yloxy)]-cyclohexylamine] | 3.8 µM |
| c1ccc(C2CCc3cc(O[C@H]4CC[C@H](N(Cc5cncs5)Cc5cncs5)CC4)ccc3O2)cc1 (stereo partly drawn) [compound 83, [trans-4-(2-Phenylchroman-6-yloxy)]-N,N-bis(thiazol-5-ylmethyl)cyclohexylamine] | 1.4 µM |
| Cn1ccc(CN(Cc2ccn(C)n2)[C@H]2CC[C@H](Oc3ccc4c(c3)CCC(c3ccccc3)O4)CC2)n1 (stereo partly drawn) [compound 84, N,N-Bis(1-methylpyrazol-3-ylmethyl)-[trans-4-(2-phenylchroman-6-yloxy)]-cyclohexylamine] | 0.8 µM |
| Cc1nc(CN(Cc2csc(C)n2)[C@H]2CC[C@H](Oc3ccc4c(c3)CCC(c3ccccc3)O4)CC2)cs1 (stereo partly drawn) [compound 86, N,N-Bis(2-methylthiazol-4-ylmethyl)-[trans-4-(2-phenylchroman-6-yloxy)]-cyclohexylamine] | 0.8 µM |
| Cc1cc(CN(Cc2cc(C)n(C)n2)[C@H]2CC[C@H](Oc3ccc4c(c3)CCC(c3ccccc3)O4)CC2)nn1C (stereo partly drawn) [compound 87, N,N-Bis(1,5-dimethylpyrazol-3-ylmethyl)-[trans-4-(2-phenylchroman-6-yloxy)]-cyclohexylamine] | 1.3 µM |
| CCC(C)CN(CC(C)CC)[C@H]1CC[C@H](Oc2ccc3c(c2)CCC(c2ccccc2)O3)CC1 (stereo partly drawn) [compound 88, N,N-Bis(2-methylbutyl)-[trans-4-(2-phenylchroman-6-yloxy)]-cyclohexylamine] | 2.5 µM |
| O=C(OC1CCC(Oc2ccc3c(c2)CCC(c2ccccc2)O3)CC1)c1ccncc1F (stereo not drawn) [compound 89, 3-Fluoro-isonicotinic acid 4-(2-phenyl-chroman-6-yloxy)-cyclohexyl ester] | 0.4 µM |
| CCCC1(O)CCC(Oc2ccc3c(c2)CCC(c2ccccc2)O3)CC1 (stereo not drawn) [compound 90, 4-(2-Phenylchroman-6-yloxy)-1-propyl-cyclohexanol] | 0.2 µM |
| O=C(NCCO)C1CCC(Oc2ccc3c(c2)CC[C@H](c2ccccc2)O3)CC1 (stereo partly drawn) [compound 99] | 0.3 µM |

| Structure (SMILES) | IC50 |
| --- | --- |
| CCC(C)CN(CCO)C1CCC(Oc2ccc3c(c2)CCC(c2ccccc2)O3)CC1 (stereo not drawn) [compound 100] | 1.4 µM |
| O=C(NCCO)C1CCC(Oc2ccc3c(c2)CC[C@@H](c2ccccc2)O3)CC1 (stereo partly drawn) [compound 102, N-(2-Hydroxyethyl)-4-((S)-2-phenylchroman-6-yloxy)-cyclohexanecarboxamide] | 1.1 µM |
| c1ccc(C2CCc3cc(OC4CCC(NC5CCCCC5)CC4)ccc3O2)cc1 (stereo not drawn) [compound 105] | 1.1 µM |
| CCCC(C)NC1CCC(Oc2ccc3c(c2)CCC(c2ccccc2)O3)CC1 (stereo not drawn) [compound 106] | 0.8 µM |
| CC(C)C(C)NC1CCC(Oc2ccc3c(c2)CCC(c2ccccc2)O3)CC1 (stereo not drawn) [compound 109] | 1 µM |
| CCOCCCNC1CCC(Oc2ccc3c(c2)CCC(c2ccccc2)O3)CC1 (stereo not drawn) [compound 112] | 0.9 µM |
| COCC(C)(C)CNC1CCC(Oc2ccc3c(c2)CCC(c2ccccc2)O3)CC1 (stereo not drawn) [compound 115] | 1 µM |
| c1ccc(C2CCc3cc(OC4CCC(NCCCC5CCOC5)CC4)ccc3O2)cc1 (stereo not drawn) [compound 116] | 0.6 µM |
| c1ccc(C2CCc3cc(OC4CCC(NCCSC5CCCCC5)CC4)ccc3O2)cc1 (stereo not drawn) [compound 117] | 3.7 µM |
| CC(C)N1CCC(CNC2CCC(Oc3ccc4c(c3)CCC(c3ccccc3)O4)CC2)CC1 (stereo not drawn) [compound 118] | 2.1 µM |
| c1ccc(C2CCc3cc(OC4CCC(NCCC5CCOCC5)CC4)ccc3O2)cc1 (stereo not drawn) [compound 120] | 0.8 µM |
| CC(C)(C)OCCCNC1CCC(Oc2ccc3c(c2)CCC(c2ccccc2)O3)CC1 (stereo not drawn) [compound 122] | 1.2 µM |
| CCCC1(NC2CCC(Oc3ccc4c(c3)CCC(c3ccccc3)O4)CC2)CC1 (stereo not drawn) [compound 124] | 2.4 µM |
| c1ccc(C2CCc3cc(OC4CCC(NC5CCOCC5)CC4)ccc3O2)cc1 (stereo not drawn) [compound 125] | 1.9 µM |
| c1ccc(C2CCc3cc(OC4CCC(NCCCOC5CCCC5)CC4)ccc3O2)cc1 (stereo not drawn) [compound 126] | 1.6 µM |
| CC(CN(C)C)NC1CCC(Oc2ccc3c(c2)CCC(c2ccccc2)O3)CC1 (stereo not drawn) [compound 128] | 1.7 µM |
| CC(C)OCCCNC1CCC(Oc2ccc3c(c2)CCC(c2ccccc2)O3)CC1 (stereo not drawn) [compound 134] | 1.1 µM |
| O=C(C1CCC(Oc2ccc3c(c2)CCC(c2ccccc2)O3)CC1)N(CCO)CCO (stereo not drawn) [compound 157, N,N-Bis(2-hydroxyethyl)-4-(2-phenylchroman-6-yloxy)-cyclohexanecarboxamide] | 2 µM |

Continued, values first:

| IC50 | Structure (SMILES) |
| --- | --- |
| 0.4 µM | Cc1n[nH]cc1CN[C@H]1CC[C@H](Oc2ccc3c(c2)CCC(c2ccccc2)O3)CC1 (stereo partly drawn) [compound 66] |
| 0.4 µM | Cc1ncsc1CN[C@H]1CC[C@H](Oc2ccc3c(c2)CCC(c2ccccc2)O3)CC1 (stereo partly drawn) [compound 67, N-(4-Methylthiazol-5-ylmethyl)-[trans-4-(2-phenylchroman-6-yloxy)]-cyclohexylamine] |
| 0.3 µM | CCn1cc(CN[C@H]2CC[C@H](Oc3ccc4c(c3)CCC(c3ccccc3)O4)CC2)c(C)n1 (stereo partly drawn) [compound 68, N-(1-Ethyl-3-methyl-pyrazol-4-ylmethyl)-[trans-4-(2-phenylchroman-6-yloxy)]-cyclohexylamine] |
| 1.3 µM | Clc1ccc(CN[C@H]2CC[C@H](Oc3ccc4c(c3)CCC(c3ccccc3)O4)CC2)s1 (stereo partly drawn) [compound 69, N-(5-Chloro-thiophen-2-ylmethyl)-[trans-4-(2-phenylchroman-6-yloxy)]-cyclohexylamine] |
| 0.5 µM | CCC(C)CN[C@H]1CC[C@H](Oc2ccc3c(c2)CCC(c2ccccc2)O3)CC1 (stereo partly drawn) [compound 70, N-(2-methylbutyl)-[trans-4-(2-phenylchroman-6-yloxy)]-cyclohexylamine] |
| 1 µM | CCn1nccc1CNC1CCC(Oc2ccc3c(c2)CCC(c2ccccc2)O3)CC1 (stereo not drawn) [compound 76] |
| 0.8 µM | c1ccc(C2CCc3cc(O[C@H]4CC[C@H](N(Cc5ccoc5)Cc5ccoc5)CC4)ccc3O2)cc1 (stereo partly drawn) [compound 85, N,N-Bis(furan-3-ylmethyl)-[trans-4-(2-phenylchroman-6-yloxy)]-cyclohexylamine] |
| 0.5 µM | Cc1nc(CNC2CCC(Oc3ccc4c(c3)CCC(c3ccccc3)O4)CC2)no1 (stereo not drawn) [compound 97] |
| 0.6 µM | CC(C)CCNC1CCC(Oc2ccc3c(c2)CCC(c2ccccc2)O3)CC1 (stereo not drawn) [compound 98] |
| 0.9 µM | CCC(C)CNC1CCC(Oc2ccc3c(c2)CCC(c2ccccc2)O3)CC1 (stereo not drawn) [compound 101] |
| 0.8 µM | c1ccc(C2CCc3cc(OC4CCC(NCc5ccoc5)CC4)ccc3O2)cc1 (stereo not drawn) [compound 103] |
| 0.8 µM | Cc1nn(C)c(C)c1CNC1CCC(Oc2ccc3c(c2)CCC(c2ccccc2)O3)CC1 (stereo not drawn) [compound 104] |
| 0.8 µM | CC(C)CCCNC1CCC(Oc2ccc3c(c2)CCC(c2ccccc2)O3)CC1 (stereo not drawn) [compound 107] |
| 0.6 µM | CCCCNC1CCC(Oc2ccc3c(c2)CCC(c2ccccc2)O3)CC1 (stereo not drawn) [compound 108] |
| 1.3 µM | COCC(C)NC1CCC(Oc2ccc3c(c2)CCC(c2ccccc2)O3)CC1 (stereo not drawn) [compound 110] |
| 0.6 µM | CSCCNC1CCC(Oc2ccc3c(c2)CCC(c2ccccc2)O3)CC1 (stereo not drawn) [compound 111] |
| 0.5 µM | CCCNC1CCC(Oc2ccc3c(c2)CCC(c2ccccc2)O3)CC1 (stereo not drawn) [compound 113] |
| 0.7 µM | CCC(C)CCNC1CCC(Oc2ccc3c(c2)CCC(c2ccccc2)O3)CC1 (stereo not drawn) [compound 114] |
| 1.1 µM | CC(C)SCCNC1CCC(Oc2ccc3c(c2)CCC(c2ccccc2)O3)CC1 (stereo not drawn) [compound 119] |
| 0.7 µM | COCCCNC1CCC(Oc2ccc3c(c2)CCC(c2ccccc2)O3)CC1 (stereo not drawn) [compound 121] |
| 1 µM | c1ccc(C2CCc3cc(OC4CCC(NC5CC5)CC4)ccc3O2)cc1 (stereo not drawn) [compound 123] |
| 1.1 µM | CC(C)(C)CCNC1CCC(Oc2ccc3c(c2)CCC(c2ccccc2)O3)CC1 (stereo not drawn) [compound 127] |
| 0.7 µM | c1ccc(C2CCc3cc(OC4CCC(NCC5CCCO5)CC4)ccc3O2)cc1 (stereo not drawn) [compound 129] |
| 1.1 µM | NCC(=O)N[C@H]1CC[C@H](Oc2ccc3c(c2)CC[C@H](c2ccccc2)O3)CC1 [compound 160, hydrochloride] |
